Reference: the supplement of paper PMC10627819

Experiments:
B. subtilis 168 [1] = test: fitness (endpoint OD595 vs no drug) (fraction); higher = more growth
Summary of the method: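 With the first reading as background, OD595 was measured every 30 min for 14 h in 384-well plates kept at 37 °C and inoculated at OD595 0.01. TSB, LB Lennox or CY was the medium. Fitness is the optical density at the transition into stationary phase divided by the robust mean of no-drug control wells, with a cap of 1.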

B. subtilis 168 [2] = test: Bliss interaction score (quartile over a dose matrix) (fitness difference); higher = more antagonism (negative = synergy)
Summary of the method: (§1)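 Each OD595 reading at entry into stationary phase was scaled to the robust mean of the untreated wells on its plate, with a ceiling of 1. These ratios define fitness, and single-drug fitness was inferred from combinations. The Bliss score compares observed fitness with the product-based expectation and is reported as quartiles across all replicate types, technical, biological and donor/recipient.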

S. aureus DSM 20231 = test: as above
Summary of the method: as §1

S. aureus Newman = test: as above
Summary of the method: as §1

S. pneumoniae D39V = test: as above
Summary of the method: as §1
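Throughout, for Bliss interaction score (quartile over a dose matrix): first quartile when negative (synergy) and third quartile when positive (antagonism).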
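Throughout, for fitness (endpoint OD595 vs no drug): OD595 on entry to stationary phase over no-drug wells; at most 1.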

O=C(O)c1cn(C2CC2)c2cc(N3CCNCC3)c(F)cc2c1=O [Ciprofloxacin] + CO[C@@H]1[C@@H](OC(N)=O)[C@@H](O)[C@H](Oc2ccc3c(O)c(NC(=O)c4ccc(O)c(CC=C(C)C)c4)c(=O)oc3c2C)OC1(C)C [Novobiocin]
fitness, B. subtilis 168 [1]
Settings	first compound 0.0098 µg/mL	first compound 0.0195 µg/mL	first compound 0.039 µg/mL
partner 0.0125 µg/mL	0.905	0.769	0.127
partner 0.025 µg/mL	0.92	0.723	0.034
partner 0.05 µg/mL	0.964	0.726	0.0487

fitness, B. subtilis 168 [1], one replicate
Settings	partner 0.1 µg/mL	partner 0.125 µg/mL	partner 0.2 µg/mL	partner 0.25 µg/mL	partner 0.5 µg/mL
first compound 0.0098 µg/mL	0.926	0.84	0.915	0.697	0.15
first compound 0.0195 µg/mL	0.727	0.78	0.71	0.448	0.066
first compound 0.039 µg/mL	0.127	0.0634	0.089	0.0302	0.0454

Settings	Bliss interaction score
B. subtilis 168 [2]	-0.183
S. aureus DSM 20231	-0.0685
S. aureus Newman	-0.115
S. pneumoniae D39V	-0.161

O=C(O)c1cn(C2CC2)c2cc(N3CCNCC3)c(F)cc2c1=O [Ciprofloxacin] + COc1cc(Cc2cnc(N)nc2N)cc(OC)c1OC [Trimethoprim]
fitness, B. subtilis 168 [1], one replicate
Settings	partner 0.1 µg/mL	partner 0.2 µg/mL	partner 0.4 µg/mL	partner 1 µg/mL	partner 2 µg/mL
first compound 0.0098 µg/mL	0.863	0.721	0.516	0.342	0.321
first compound 0.0195 µg/mL	0.835	0.552	0.457	0.333	0.349
first compound 0.039 µg/mL	0.412	0.355	0.334	0.276	0.246

fitness, B. subtilis 168 [1]
Settings	first compound 0.0098 µg/mL	first compound 0.0195 µg/mL	first compound 0.039 µg/mL
partner 0.125 µg/mL	0.647	0.546	0.424
partner 0.25 µg/mL	0.547	0.428	0.355
partner 0.5 µg/mL	0.479	0.444	0.387

Settings	Bliss interaction score
B. subtilis 168 [2]	0.135
S. aureus DSM 20231	-0.106
S. aureus Newman	-0.165
S. pneumoniae D39V	0.0557

COc1cccc2c1C(=O)c1c(O)c3c(c(O)c1C2=O)C[C@@](O)(C(=O)CO)C[C@@H]3O[C@H]1C[C@H](N)[C@H](O)[C@H](C)O1 [Doxorubicin] + CO[C@@H]1[C@@H](OC(N)=O)[C@@H](O)[C@H](Oc2ccc3c(O)c(NC(=O)c4ccc(O)c(CC=C(C)C)c4)c(=O)oc3c2C)OC1(C)C [Novobiocin]
fitness, B. subtilis 168 [1]
Settings	first compound 0.625 µg/mL	first compound 1.25 µg/mL	first compound 2.5 µg/mL
partner 0.0125 µg/mL	0.984	0.931	0.787
partner 0.025 µg/mL	0.971	0.893	0.727
partner 0.05 µg/mL	0.993	0.938	0.631

fitness, B. subtilis 168 [1], one replicate
Settings	partner 0.1 µg/mL	partner 0.125 µg/mL	partner 0.2 µg/mL	partner 0.25 µg/mL	partner 0.5 µg/mL
first compound 0.625 µg/mL	0.972	0.912	≥ 1	0.793	0.516
first compound 1.25 µg/mL	0.99	0.901	0.971	0.785	0.305
first compound 2.5 µg/mL	0.571	0.834	0.588	0.386	0.0091

Settings	Bliss interaction score
B. subtilis 168 [2]	0.0565
S. aureus DSM 20231	-0.0601
S. aureus Newman	-0.082
S. pneumoniae D39V	-0.106

C[C@H]1c2cccc(O)c2C(=O)C2=C(O)[C@]3(O)C(=O)C(C(N)=O)=C(O)[C@@H](N(C)C)[C@@H]3[C@@H](O)[C@@H]21 [Doxycycline] + CO[C@@H]1[C@@H](OC(N)=O)[C@@H](O)[C@H](Oc2ccc3c(O)c(NC(=O)c4ccc(O)c(CC=C(C)C)c4)c(=O)oc3c2C)OC1(C)C [Novobiocin]
fitness, B. subtilis 168 [1]
Settings	first compound 0.02 µg/mL	first compound 0.04 µg/mL	first compound 0.08 µg/mL
partner 0.0125 µg/mL	0.885	0.808	0.466
partner 0.025 µg/mL	0.875	0.775	0.405
partner 0.05 µg/mL	0.978	0.775	–

fitness, B. subtilis 168 [1], one replicate
Settings	partner 0.1 µg/mL	partner 0.125 µg/mL	partner 0.2 µg/mL	partner 0.25 µg/mL	partner 0.5 µg/mL
first compound 0.02 µg/mL	≥ 1	0.861	0.979	0.963	0.623
first compound 0.04 µg/mL	0.874	0.787	0.895	0.712	0.547
first compound 0.08 µg/mL	0.675	0.341	0.71	0.103	0.0433

Settings	Bliss interaction score
B. subtilis 168 [2]	0.0575
S. aureus DSM 20231	0.0829
S. aureus Newman	0.0369
S. pneumoniae D39V	0.0928

C[C@H]1c2cccc(O)c2C(=O)C2=C(O)[C@]3(O)C(=O)C(C(N)=O)=C(O)[C@@H](N(C)C)[C@@H]3[C@@H](O)[C@@H]21 [Doxycycline] + COc1cc(Cc2cnc(N)nc2N)cc(OC)c1OC [Trimethoprim]
fitness, B. subtilis 168 [1], one replicate
Settings	partner 0.1 µg/mL	partner 0.2 µg/mL	partner 0.4 µg/mL	partner 1 µg/mL	partner 2 µg/mL
first compound 0.02 µg/mL	0.84	0.754	0.616	0.346	0.259
first compound 0.04 µg/mL	0.683	0.51	0.391	0.234	0.146
first compound 0.08 µg/mL	0.362	0.222	0.156	0.0631	0.0715

fitness, B. subtilis 168 [1]
Settings	first compound 0.02 µg/mL	first compound 0.04 µg/mL	first compound 0.08 µg/mL
partner 0.125 µg/mL	0.695	0.659	0.52
partner 0.25 µg/mL	–	0.644	0.448
partner 0.5 µg/mL	–	0.412	0.262

Settings	Bliss interaction score
B. subtilis 168 [2]	0.0804
S. aureus DSM 20231	0.108
S. aureus Newman	0.028
S. pneumoniae D39V	-0.108

C[C@@H]1O[C@@H]1P(=O)(O)O [Fosfomycin] + CO[C@@H]1[C@@H](OC(N)=O)[C@@H](O)[C@H](Oc2ccc3c(O)c(NC(=O)c4ccc(O)c(CC=C(C)C)c4)c(=O)oc3c2C)OC1(C)C [Novobiocin]
fitness, B. subtilis 168 [1]
Settings	first compound 1.562 µg/mL	first compound 3.124 µg/mL	first compound 6.248 µg/mL
partner 0.0125 µg/mL	0.712	0.609	0.44
partner 0.025 µg/mL	0.658	0.586	0.408
partner 0.05 µg/mL	0.792	0.69	0.47

fitness, B. subtilis 168 [1], one replicate
Settings	partner 0.1 µg/mL	partner 0.125 µg/mL	partner 0.2 µg/mL	partner 0.25 µg/mL	partner 0.5 µg/mL
first compound 1.562 µg/mL	0.746	0.785	0.793	0.7	0.12
first compound 3.124 µg/mL	0.698	0.782	0.691	0.637	0.0455
first compound 6.248 µg/mL	0.531	0.551	0.507	0.36	0.0252

Settings	Bliss interaction score
B. subtilis 168 [2]	-0.0536
S. aureus DSM 20231	0.1
S. aureus Newman	0.0635
S. pneumoniae D39V	-0.102

Cc1ncc([N+](=O)[O-])n1CCO [Metronidazole] + CO[C@@H]1[C@@H](OC(N)=O)[C@@H](O)[C@H](Oc2ccc3c(O)c(NC(=O)c4ccc(O)c(CC=C(C)C)c4)c(=O)oc3c2C)OC1(C)C [Novobiocin]
fitness, B. subtilis 168 [1]
Settings	first compound 0.625 µg/mL	first compound 1.25 µg/mL	first compound 2.5 µg/mL
partner 0.0125 µg/mL	0.969	0.954	0.968
partner 0.025 µg/mL	0.998	0.977	0.986
partner 0.05 µg/mL	0.969	0.977	0.98

fitness, B. subtilis 168 [1], one replicate
Settings	first compound 0.625 µg/mL	first compound 1.25 µg/mL	first compound 2.5 µg/mL
partner 0.125 µg/mL	≥ 1	0.958	0.915
partner 0.25 µg/mL	0.923	0.916	0.908
partner 0.5 µg/mL	0.584	0.633	0.552

Settings	Bliss interaction score
B. subtilis 168 [2]	0.072
S. aureus DSM 20231	0.0355
S. aureus Newman	0.05
S. pneumoniae D39V	0.126

CN(C)c1cc(NC(=O)CNC(C)(C)C)c(O)c2c1C[C@H]1C[C@H]3[C@H](N(C)C)C(O)=C(C(N)=O)C(=O)[C@@]3(O)C(O)=C1C2=O [Tigecycline] + COc1cc(Cc2cnc(N)nc2N)cc(OC)c1OC [Trimethoprim]
fitness, B. subtilis 168 [1], one replicate
Settings	partner 0.1 µg/mL	partner 0.125 µg/mL	partner 0.2 µg/mL	partner 0.25 µg/mL	partner 0.4 µg/mL	partner 0.5 µg/mL	partner 1 µg/mL	partner 2 µg/mL
first compound 0.039 µg/mL	0.879	0.739	0.77	–	0.58	–	0.505	0.438
first compound 0.078 µg/mL	0.896	0.727	0.754	–	0.577	–	0.455	0.408
first compound 0.125 µg/mL	–	0.898	–	0.749	–	0.694	–	–
first compound 0.156 µg/mL	0.883	0.758	0.814	–	0.546	–	0.402	0.357
first compound 0.25 µg/mL	–	0.798	–	0.546	–	0.55	–	–
first compound 0.5 µg/mL	–	0.87	–	0.695	–	0.633	–	–

fitness, B. subtilis 168 [1]
Settings	first compound 0.039 µg/mL	first compound 0.078 µg/mL	first compound 0.156 µg/mL
partner 0.25 µg/mL	0.657	0.653	0.677
partner 0.5 µg/mL	0.567	0.532	0.529

Settings	Bliss interaction score
B. subtilis 168 [2]	0.121
S. aureus DSM 20231	-0.0664
S. aureus Newman	-0.0503
S. pneumoniae D39V	-0.119
